Reference: patent US20060121483A1, “Methods for detecting teneurin signalling and related screening methods” (priority 2002, published 2006)
Where a SMILES comes first, the peptide text is derived from it. [ ]: non-standard residue; d: D form. Nle = CCCC[C@H](N)C(=O)O

Legend:
Type in all cases: cell-based
[1] = test system: BDAD-CTEY; assay: BDAD-teneurin-2 fusion GAL4 luciferase reporter (cleavage) assay; details: addition of protease inhibitors; ALLN 25 μg/ml, lactacystin 10 μM
Method: (§1) HT1 080 human fibrosarcoma (ATCC CRL-12012) and COS-7 cells (SV40-transformed kidney fibroblasts from the African green monkey, ATCC CRL-1651) were routinely maintained In DMEM medium (Dulbecco's Modified Eagles Medium) supplemented with 10% FCS (fetal calf serum). For transient transfections the cells were seeded in 6-well plates or 4-well staining dishes (Greiner). Twelve hours later they were transfected with the expression vectors containing the constructs (1 μg of each vector) described above and in Example 2 (Zic), Example 4 and Example 5 by using FUGENE-6 (3 μl, 6 μl or 9 μl for one, two to three, or four different plasmids, respectively). […]
The cells were lysed by adding reporter lysis buffer (Promega). Serial dilutions of the lysed cell suspension were then pipetted into Microlite™ luciferase plates (Dynex Technologies) and the luciferase activity was measured in a Microlumat (LB96P, EG+G Berthold) by automatic injection of luciferin substrate solution (2 mM luciferin, 100 mM ATP in 250 mM glycin pH 7.8, 150 mM MgSO4). […] To stop the enzymatic reaction, three times the sample volume of 1 M Na2CO3 was added and the OD was measured at 405 nm in a microplate reader (BioRad). […]

[2] = test system: teneurin-2 CTE; assay: Western blot of teneurin-2 CTE and its cleavage products; details: two cleavage products, one the size of the cytoplasmic domain alone
Method: as §1, with “respectively). The cells were treated with the following substances at least five hours after transfection: ALLN (25 μg/ml; N-acetyl-leu-leu-norleu-AL; Sigma); tunicamycin (2 μg/ml; Sigma) or lactacystin (10 μM; e.g. Sigma) for four or eight hours prior to harvesting.” for “respectively).”
(§2) The gels were transferred to PVDF (polyvinylidene fluoride) membranes. The proteins were detected by anti-GAL4 antibody (BDAD and BDAD-C) or by anti-teneurin-2 serum (BDAD-CTE and BDAD-CTEY), horseradish peroxidase coupled secondary antibodies and ECL SuperSignal® (Pierce).

[3] = test system: transcriptional activity of Zic; assay: Zic / ApoE-luciferase reporter assay in EcR 293 stable transfectants
[4] = test system: teneurin-2 C; assay: Teneurin-2 C expression level after co-transfection with Zic; details: HT1080 cells, transient co-transfection of teneurin-2 C and Zic; lactacystin 10 μM
Method: as §1, with “respectively). The cells were treated with the following substances at least five hours after transfection: ALLN (25 μg/ml; N-acetyl-leu-leu-norleu-AL; Sigma); tunicamycin (2 μg/ml; Sigma) or lactacystin (10 μM; e.g. Sigma) for four or eight hours prior to harvesting.” for “respectively).”
as §2
In this Example, it was determined whether the zinc finger transcription factor Zic, a vertebrate homologue of opa would influence, or be influenced by, the cytoplasmic domain of teneurin-2. […]

[5] = test system: K3 cells; assay: Proliferation assay, K3 cells; details: 5 day period, crystal violet, ponasterone induces the cytoplasmic domain of teneurin-2
Method: (§3) The effect of the expression of the cytoplasmic domain of teneurin-2 on cell proliferation was tested. K3 cells (EcR-293 cells (Invitrogen) containing the stably integrated plasmid pVgRXR (Invitrogen) and the plnd teneurin-2 plasmid encoding the cytoplasmic domain, described in Example 7) were cultured in the presence or absence of ponasterone, which induces expression of the cytoplasmic domain of teneurin-2. Typically, over a 5 day period, parallel cultures were fixed with 4% formaldehyde every day and cell numbers were determined by staining the cells with crystal violet (0.1% in H20). In the presence of ponasterone and thus in the presence of the cytoplasmic domain of teneurin, the K3 cells were retarded in their growth rate to about 50% of the untreated cells. Proliferation of EcR-293 cells without transfected cytoplasmic domain of teneurin-2 was not affected by the addition of ponasterone, proving that the growth retardation was specifically dependent on the presence of the cytoplasmic domain of teneurin-2.

[6] = test system: EcR-293 cells; assay: Proliferation assay, EcR-293 cells; details: EcR-293 cells without transfected cytoplasmic domain of teneurin-2
Method: as §3

Row | SMILES | induction of luciferase activity following transfection of BDAD-CTEY [1] | stabilisation of cleavage products of CTE (western blot) [2] | stabilization of teneurin-2 C ([3]; ALLN 25 μg/ml) | inhibitory effect of teneurin-2 C on the transcriptional activity of Zic (ApoE-luciferase reporter) ([3]; EcR 293 cells, teneurin-2 C induced by ponasterone, in the presence of ALLN) | Zic induced downregulation of teneurin-2 C [4] | growth rate relative to untreated cells [5] | proliferation [6] | expression level of the reporter gene (ApoE-luciferase) after induction of teneurin-2 C ([3]; EcR 293 stable transfectants transiently transfected with Zic, ponasterone induces teneurin-2 C)
1 | CCCC[C@@H](C=O)NC(=O)[C@H](CC(C)C)NC(=O)[C@H](CC(C)C)NC(C)=O [ALLN, N-acetyl-leu-leu-norleu-AL] (Ac-Leu-Leu-[Nle]-aldehyde) | markedly upregulated | stabilisation of two particular cleavage products | stabilize teneurin-2 C | more pronounced |  |  |  | 
2 | CC(=O)N[C@@H](CSC(=O)[C@]1([C@@H](O)C(C)C)NC(=O)[C@H](C)[C@@H]1O)C(=O)O [lactacystin] | markedly upregulated |  |  |  | counteracted |  |  | 
3 | CC(C)CC[C@@H](O)[C@](C)(O)[C@H]1CC[C@@]2(O)C3=CC(=O)[C@@H]4C[C@@H](O)[C@@H](O)C[C@]4(C)[C@H]3CC[C@]12C [ponasterone] |  |  |  |  |  | about 50% | not affected | marked reduction
